Values of other authors in patent US20150079136A1, “CONTROLLED RELEASE PHARMACEUTICAL FORMULATIONS OF DIRECT THROMBIN INHIBITORS” (RUBICON RESEARCH PRIVATE LIMITED, priority 2012, published 2015).
Counter-ions that a name gives are not always drawn. Like-named read-outs stand apart in the source and are kept apart here.

What was measured:
[1] = not given; remark: listed apart in the source
[2] = not given; remark: listed apart in the source
P-glycoprotein = P-glycoprotein (Homo sapiens, UniProt P08183)
Sequence of P-glycoprotein (P08183 whole entry): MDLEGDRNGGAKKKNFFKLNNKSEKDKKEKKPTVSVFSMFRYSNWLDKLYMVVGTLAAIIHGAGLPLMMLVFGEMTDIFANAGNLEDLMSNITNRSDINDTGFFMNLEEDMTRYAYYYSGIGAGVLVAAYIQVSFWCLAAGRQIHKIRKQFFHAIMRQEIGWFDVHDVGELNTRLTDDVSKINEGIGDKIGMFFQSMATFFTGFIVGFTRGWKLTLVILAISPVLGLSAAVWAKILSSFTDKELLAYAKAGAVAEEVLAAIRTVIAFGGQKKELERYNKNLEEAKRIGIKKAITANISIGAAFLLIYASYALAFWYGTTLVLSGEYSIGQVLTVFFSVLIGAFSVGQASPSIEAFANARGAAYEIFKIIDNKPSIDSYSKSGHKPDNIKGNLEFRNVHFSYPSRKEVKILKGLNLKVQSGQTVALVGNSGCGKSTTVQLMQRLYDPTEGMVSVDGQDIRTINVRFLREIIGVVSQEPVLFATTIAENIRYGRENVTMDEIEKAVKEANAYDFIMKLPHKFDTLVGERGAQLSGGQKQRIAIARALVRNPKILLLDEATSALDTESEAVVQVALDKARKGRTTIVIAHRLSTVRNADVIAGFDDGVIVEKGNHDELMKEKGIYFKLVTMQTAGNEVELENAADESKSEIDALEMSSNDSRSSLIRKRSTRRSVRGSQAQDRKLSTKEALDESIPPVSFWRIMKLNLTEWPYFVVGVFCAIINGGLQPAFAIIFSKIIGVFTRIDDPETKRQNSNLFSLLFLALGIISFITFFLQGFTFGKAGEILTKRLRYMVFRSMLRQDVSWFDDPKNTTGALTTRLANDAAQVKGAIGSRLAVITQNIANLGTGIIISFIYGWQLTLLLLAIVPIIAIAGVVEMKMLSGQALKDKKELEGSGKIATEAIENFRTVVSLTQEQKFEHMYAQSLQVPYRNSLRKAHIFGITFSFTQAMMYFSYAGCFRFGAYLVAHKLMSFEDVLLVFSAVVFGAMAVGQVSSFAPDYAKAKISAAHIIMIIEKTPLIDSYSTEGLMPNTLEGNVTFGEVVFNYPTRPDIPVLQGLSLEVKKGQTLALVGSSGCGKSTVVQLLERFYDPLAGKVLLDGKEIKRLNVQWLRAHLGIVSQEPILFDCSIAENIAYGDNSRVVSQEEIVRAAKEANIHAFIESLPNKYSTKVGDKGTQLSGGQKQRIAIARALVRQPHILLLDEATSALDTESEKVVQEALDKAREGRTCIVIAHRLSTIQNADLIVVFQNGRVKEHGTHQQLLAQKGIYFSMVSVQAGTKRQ

| solubility in acidic media (acidic media) | solubility in neutral and basic media (neutral and basic media) | BCS class (poor aqueous solubility but good membrane permeability) | sensitivity to light irradiation ([1]; light irradiation) | hygroscopicity ([1]; powder) | stability in the solid state ([1]; solid state) | elimination half life ([2]; multiple dosing) | elimination half life ([2]; single dosing) [h] | substrate of efflux transporter P-glycoprotein (P-glycoprotein) | effect of high-fat meal on the bioavailability of dabigatran ([2]; coadministration with a high-fat meal) | absolute bioavailability of dabigatran ([2]; following oral administration of dabigatran etexilate) | increase in oral bioavailability ([2]; marketed formulation, pellets taken without the capsule shell vs intact capsule) [%] | Compound | degradation in the presence of moisture ([1]; presence of moisture) |
| --- | --- | --- | --- | --- | --- | --- | --- | --- | --- | --- | --- | --- | --- |
| rather high solubility | very poor solubility | Class II | not sensitive | non-hygroscopic | stable | about 8 hours | 12 to 17 | – | – | – | – | CCCCCCOC(=O)NC(=N)c1ccc(NCc2nc3cc(C(=O)N(CCC(=O)OCC)c4ccccn4)ccc3n2C)cc1 [DEM, dabigatran etexilate mesylate] | predominantly undergoes degradation by hydrolytic pathways |
| – | – | – | – | – | – | – | – | substrate | no effect | 3-7% | 75 | CCCCCCOC(=O)NC(=N)c1ccc(NCc2nc3cc(C(=O)N(CCC(=O)OCC)c4ccccn4)ccc3n2C)cc1 [dabigatran etexilate, 1-methyl-2-[N-[4-(N-n-hexyloxycarbonylamidino)phenyl]aminomethyl]benzimidazol-5-ylcarboxylic acid-N-(2-pyridyl)-N-(2 ethoxycarbonylethyl)amides] | – |
